Source: patent US9073830B2 (Hyundai Pharm Co., Ltd., priority 2011, dated 2015)

Tests used:
mouse 11β-HSD1 = target: T1, mouse 11β-HSD1 (Mus musculus, UniProt P50172); assay: Enzyme activity analysis on mouse 11β-HSD1 (HTRF cortisol, liver microsomes); format: biochemical; details: second value of cell
T1 construct: 100 ug/ml human/mouse liver microsomes; from tissue; host or cells: mouse liver microsomes
In short: (§1)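 Cortisol generated by mouse or human liver microsome 11β-HSD1 during 2 h at 37° C., measured by HTRF competition (cryptate anti-cortisol antibody, d2-cortisol, 2 h room temperature) against a cortisol standard curve. IC50 from percent inhibition versus no-compound control.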

human 11β-HSD1 = target: T2, human 11β-HSD1 (Homo sapiens, UniProt P28845); assay: Enzyme activity analysis on human 11β-HSD1 (HTRF cortisol, liver microsomes); format: biochemical; details: first value of cell
T2 construct: 100 ug/ml human/mouse liver microsomes; from tissue; host or cells: human liver microsomes
In short: as §1

T2 sequence (P28845 whole entry): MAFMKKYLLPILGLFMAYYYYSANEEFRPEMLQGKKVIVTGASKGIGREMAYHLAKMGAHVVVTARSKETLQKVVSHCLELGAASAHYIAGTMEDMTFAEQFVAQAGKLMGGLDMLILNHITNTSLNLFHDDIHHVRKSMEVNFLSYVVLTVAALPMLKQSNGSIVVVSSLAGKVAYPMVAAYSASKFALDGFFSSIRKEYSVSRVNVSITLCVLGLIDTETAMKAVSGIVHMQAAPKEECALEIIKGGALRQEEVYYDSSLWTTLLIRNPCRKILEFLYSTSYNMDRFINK
T1 sequence (P50172 whole entry): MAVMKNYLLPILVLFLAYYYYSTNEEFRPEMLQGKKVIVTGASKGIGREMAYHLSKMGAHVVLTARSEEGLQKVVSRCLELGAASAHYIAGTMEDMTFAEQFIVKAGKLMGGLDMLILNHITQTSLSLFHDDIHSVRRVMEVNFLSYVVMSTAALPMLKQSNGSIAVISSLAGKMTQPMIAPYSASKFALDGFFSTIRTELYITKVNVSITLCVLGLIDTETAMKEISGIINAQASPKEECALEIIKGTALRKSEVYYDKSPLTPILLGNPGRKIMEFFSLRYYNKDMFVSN

Row | IC50 (mouse 11β-HSD1) [µM] | IC50 (human 11β-HSD1) [µM] | Molecule
1 | 1.21 | 0.692 | CC(C)(NS(=O)(=O)c1ccc([N+](=O)[O-])cc1)C(=O)NC1C2CC3CC1CC(O)(C3)C2 (stereo not shown) [compound 78, N-(5-hydroxyadamantane-2-yl)-2-methyl-2-(4-nitrophenylsulfonamido)propanamide]
2 | 0.015 | 0.017 | NC(=O)C12CC3CC(C1)C(NC(=O)C1(NS(=O)(=O)c4ccccc4Br)CCCC1)C(C3)C2 (stereo not shown) [compound 174, N-4-(1-(2-bromophenylsulfonamido)cyclopentanecarboxyamido)adamantane-1-carboxyamide]
3 | 0.328 | 0.023 | Cc1c(Cl)cccc1S(=O)(=O)NC1(C(=O)NC2C3CC4CC2CC(C(N)=O)(C4)C3)CCCCC1 (stereo not shown) [compound 180, N-4-(1-(3-chloro-2-methylphenylsulfonamido)cyclohexanecarboxyamido)adamantane-1-carboxyamide]
4 | 0.042 | 0.004 | Cc1c(Cl)cccc1S(=O)(=O)N(C)C(C)(C)C(=O)NC1C2CC3CC1CC(O)(C3)C2 (stereo not shown) [compound 204, N-(5-hydroxyadamantane-2-yl)-2-(2-methyl-3-chloro-N-methylphenylsulfonamido)-2-methylpropanamide]
5 | 0.673 | 0.21 | CCc1ccc(S(=O)(=O)NC(C)(C)C(=O)NC2C3CC4CC(C3)CC2C4)cc1 (stereo not shown) [compound 53, N-(adamantane-2-yl)-2-methyl-2-(4-ethylphenylsulfonamido)propanamide]
6 | 0.22 | 0.024 | CC(C)(NS(=O)(=O)c1ccc(Br)cc1)C(=O)NC1C2CC3CC1CC(C(N)=O)(C3)C2 (stereo not shown) [compound 124]
7 | 0.213 | 0.072 | CC(C)(NS(=O)(=O)c1ccc(F)cc1Cl)C(=O)NC1C2CC3CC1CC(O)(C3)C2 (stereo not shown) [compound 80, N-(5-hydroxyadamantane-2-yl)-2-methyl-2-(4-fluoro-2-chlorophenylsulfonamido)propan amide]
8 | > 2.5 | 0.018 | CN(C(C)(C)C(=O)NC1C2CC3CC1CC(C(N)=O)(C3)C2)S(=O)(=O)c1ccccc1Br (stereo not shown) [compound 189, N-4-(2-(2-bromo-N-methylphenylsulfonamido)-2-methylpropanamido)adamantane-1-carboxyamide]
9 | 0.168 | 0.021 | CC(C)(NS(=O)(=O)c1cc(Cl)cc(Br)c1)C(=O)NC1C2CC3CC1CC(C(N)=O)(C3)C2 (stereo not shown) [compound 125]
10 | 0.068 | 0.005 | CN(C(C)(C)C(=O)NC1C2CC3CC1CC(O)(C3)C2)S(=O)(=O)c1ccccc1[N+](=O)[O-] (stereo not shown) [compound 205, N-(5-hydroxyadamantane-2-yl)-2-(2-nitro-N-methylphenylsulfonamido)-2-methylpropan amide]

Continued, molecule first:

Row | Molecule | IC50 (mouse 11β-HSD1) [µM] | IC50 (human 11β-HSD1) [µM]
11 | CC(C)(NS(=O)(=O)c1cccc(F)c1)C(=O)NC1C2CC3CC(C2)CC1C3 (stereo not shown) [compound 30, N-(adamantane-2-yl)-2-methyl-2-(3-fluorophenylsulfonamido)propanamide] | 0.462 | 0.192
12 | Cc1ccc(S(=O)(=O)NC(C)(C)C(=O)NC2C3CC4CC(C3)CC2C4)cc1Cl (stereo not shown) [compound 62, N-(adamantane-2-yl)-2-methyl-2-(4-methyl-3-chlorophenylsulfonamido)propanamide] | 0.686 | 0.215
13 | CC(C)(NS(=O)(=O)c1cccc([N+](=O)[O-])c1)C(=O)NC1C2CC3CC1CC(C(N)=O)(C3)C2 (stereo not shown) [compound 107, N-4-(2-(3-nitrophenylsulfonamido)-2-methylpropanamido)adamantane-1-carboxyamide] | 0.563 | 0.178
14 | CC(C)(NS(=O)(=O)c1ccc(Cl)cc1)C(=O)NC1C2CC3CC(C2)CC1C3 (stereo not shown) [compound 5, N-(adamantane-2-yl)-2-methyl-2-(4-chlorophenylsulfonamido)propanamide] | 1.05 | 0.43
15 | CC(C)c1ccc(S(=O)(=O)NC(C)(C)C(=O)NC2C3CC4CC(C3)CC2C4)cc1 (stereo not shown) [compound 57, N-(adamantane-2-yl)-2-methyl-2-(4-isopropylphenylsulfonamido)propanamide] | 1.32 | 1.04
16 | Cc1ccc(S(=O)(=O)NC2(C(=O)NC3C4CC5CC3CC(C(N)=O)(C5)C4)CCC2)cc1[N+](=O)[O-] (stereo not shown) [compound 150, N-4-(1-(3-nitro-4-methylphenylsulfonamido)cyclobutanecarboxyamido)adamantane-1-carboxyamide] | 0.187 | 0.639
17 | NC(=O)C12CC3CC(C1)C(NC(=O)C1(NS(=O)(=O)c4cccc(Cl)c4Cl)CC1)C(C3)C2 (stereo not shown) [compound 136, N-4-(1-(2,3-dichlorophenylsulfonamido)cyclopropanecarboxyamido)adamantane-1-carboxyamide] | 0.028 | 0.009
18 | Cc1ccc(F)cc1S(=O)(=O)NC(C)(C)C(=O)NC1C2CC3CC1CC(C(N)=O)(C3)C2 (stereo not shown) [compound 95, N-4-(2-(2-methyl-5-fluorophenylsulfonamido)-2-methylpropanamido)adamantane-1-carboxyamide] | 0.144 | 0.013
19 | NC(=O)C12CC3CC(C1)C(NC(=O)C1(NS(=O)(=O)c4ccccc4[N+](=O)[O-])CCCC1)C(C3)C2 (stereo not shown) [compound 173, N-4-(1-(2-nitrophenylsulfonamido)cyclopentanecarboxyamido)adamantane-1-carboxyamide] | 0.038 | 0.014
20 | CCN(CC)C(=O)C12CC3CC(C1)C(NC(=O)C(C)(C)NS(=O)(=O)c1ccccc1Cl)C(C3)C2 (stereo not shown) [compound 227, 4-[2-(2-chloro-benzenesulfonylamino)-2-methyl-propionylamino]-adamantane-1-carboxylic acid diethylamide] | > 2.5 | > 2.5
21 | CNC(=O)C12CC3CC(C1)C(NC(=O)C(C)(C)NS(=O)(=O)c1ccccc1Cl)C(C3)C2 (stereo not shown) [compound 237, 4-[2-(2-chloro-benzenesulfonylamino)-2-methyl-propionylamino]-adamantane-1-carboxylic acid methylamide] | 0.437 | 1.5
22 | CC(C)(NS(=O)(=O)c1ccc(C(F)(F)F)cc1)C(=O)NC1C2CC3CC(C2)CC1C3 (stereo not shown) [compound 37, N-(adamantane-2-yl)-2-methyl-2-(4-trifluoromethylphenylsulfonamido)propanamide] | > 2.5 | > 2.5
23 | CC(C)(NS(=O)(=O)c1ccc(Br)cc1)C(=O)NC1C2CC3CC(C2)CC1C3 (stereo not shown) [compound 65, N-(adamantane-2-yl)-2-methyl-2-(4-bromophenylsulfonamido)propanamide] | 1.65 | 0.996
24 | NC(=O)C12CC3CC(C1)C(NC(=O)C1(NS(=O)(=O)c4cc(Cl)c(Cl)cc4Cl)CCC1)C(C3)C2 (stereo not shown) [compound 161, N-4-(1-(2,4,5-trichlorophenylsulfonamido)cyclobutanecarboxyamido)adamantane-1-carboxyamide] | 0.428 | 0.052
25 | N-4-(2-methoxy-6-fluoro-N-ethylphenylsulfonamido)-2-methylpropanamido)adamantane-1-carboxyamide [compound 214] | 0.006 | 0.012
26 | NC(=O)C12CC3CC(C1)C(NC(=O)C1(NS(=O)(=O)c4ccccc4Br)CC1)C(C3)C2 (stereo not shown) [compound 131, N-4-(1-(2-bromophenylsulfonamido)cyclopropanecarboxyamido)adamantane-1-carboxyamide] | 0.048 | 0.008
